Measurements from patent US11267800B2, “Cyclohexyl acid triazole azines as LPA antagonists” (BRISTOL-MYERS SQUIBB COMPANY, priority 2017, dated 2022).

molecular target: T1, human LPA1 (Homo sapiens, UniProt Q92633); assay: LPA1 functional antagonist assay (calcium flux); type: cell-based; details: CHO cells overexpressing human LPA1; inhibition of calcium flux induced by 10 nM LPA; read-out: hLPA1 IC50
T1 construct: expressed in transfected cells; host or cells: Chinese hamster ovary (CHO) cells
T1 sequence (Q92633 whole entry): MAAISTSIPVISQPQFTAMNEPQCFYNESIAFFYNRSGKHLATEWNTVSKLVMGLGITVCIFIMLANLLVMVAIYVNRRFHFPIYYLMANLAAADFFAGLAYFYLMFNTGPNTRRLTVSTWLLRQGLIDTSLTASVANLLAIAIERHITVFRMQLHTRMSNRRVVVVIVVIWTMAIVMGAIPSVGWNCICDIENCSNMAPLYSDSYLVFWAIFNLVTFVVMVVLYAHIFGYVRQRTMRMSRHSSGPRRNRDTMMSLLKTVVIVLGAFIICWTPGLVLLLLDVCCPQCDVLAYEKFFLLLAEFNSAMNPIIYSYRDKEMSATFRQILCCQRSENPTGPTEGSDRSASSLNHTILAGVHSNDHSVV
Procedure: The effectiveness of compounds of the present invention as LPA1 inhibitors can be determined in an LPA1 functional antagonist assay as follows:
Chinese hamster ovary cells overexpressing human LPA1 were plated overnight (15,000 cells/well) in poly-D-lysine coated 384-well microplates (Greiner bio-one, Cat #781946) in DMEM/F12 medium (Gibco, Cat #11039). Following overnight culture, cells were loaded with calcium indicator dye (AAT Bioquest Inc, Cat #34601) for 30 minutes at 37° C. The cells were then equilibrated to room temperature for 30 minutes before the assay. Test compounds solubilized in DMSO were transferred to 384 well non-binding surface plates (Corning, Cat #3575) using the Labcyte Echo acoustic dispense and diluted with assay buffer [1×HBSS with calcium/magnesium (Gibco Cat #14025-092), 20 mM HEPES (Gibco Cat #15630-080) and 0.1% fatty acid free BSA (Sigma Cat #A9205)] to a final concentration of 0.5% DMSO. Diluted compounds were added to the cells by FDSS6000 (Hamamatsu) at final concentrations ranging from 0.08 nM to 5 μM. and were then incubated for 20 min at room temperature at which time LPA (Avanti Polar Lipids Cat #857130C) was added at final concentrations of 10 nM to stimulate the cells. The compound IC50 value was defined as the concentration of test compound which inhibited 50% of the calcium flux induced by LPA alone. IC50 values were determined by fitting data to a 4-parameter logistic equation (GraphPad Prism, San Diego Calif.).

| Compound | IC50 |
| --- | --- |
| Cc1nc(-c2nnn(C)c2CNc2cc(OC(F)(F)F)ccn2)ccc1O[C@@H]1CCC[C@@H](C(=O)O)C1 [Example 75] | 413 nM |
| Cc1nc(-c2nnn(C)c2CNc2ncc(F)c(NCCc3ccc(Cl)cc3)n2)ccc1O[C@H]1CCC[C@H](C(=O)O)C1 [Example 76] | 44 nM |
| Cc1nc(-c2nnn(C)c2CNc2ccnc(OCC(C)(F)F)n2)ccc1O[C@H]1CCC[C@H](C(=O)O)C1 [Example 77] | 65 nM |
| Cc1nc(-c2nnn(C)c2CNc2nccc(OCC(C)(F)F)n2)ccc1O[C@H]1CCC[C@H](C(=O)O)C1 [Example 78] | 34 nM |
| Cc1nc(-c2nnn(C)c2CNc2nccc(OCC(F)F)n2)ccc1O[C@H]1CCC[C@H](C(=O)O)C1 [Example 79] | 80 nM |
| Cc1nc(-c2nnn(C)c2CNc2ncnc(Oc3ccccc3)n2)ccc1O[C@H]1CCC[C@H](C(=O)O)C1 [Example 80] | 135 nM |
| Cc1nc(-c2nnn(C)c2CNc2nccc(-c3cnccn3)n2)ccc1O[C@H]1CCC[C@H](C(=O)O)C1 [Example 81] | 92 nM |
| COCCOc1ccnc(NCc2c(-c3ccc(O[C@H]4CCC[C@H](C(=O)O)C4)c(C)n3)nnn2C)n1 [Example 82] | 122 nM |
| Cc1nc(-c2nnn(C)c2CNc2nccc(OC3CCOC3)n2)ccc1O[C@H]1CCC[C@H](C(=O)O)C1 (stereo partly shown) [Example 83] | 172 nM |
| Cc1nc(-c2nnn(C)c2CNc2nccc(Oc3ccc(Cl)nc3)n2)ccc1O[C@H]1CCC[C@H](C(=O)O)C1 [Example 84] | 383 nM |
| Cc1nc(-c2nnn(C)c2CNc2nccc(OC3CCCC3)n2)ccc1O[C@H]1CCC[C@H](C(=O)O)C1 [Example 85] | 109 nM |
| Cc1nc(-c2nnn(C)c2CNc2nccc(Oc3cccnc3)n2)ccc1O[C@H]1CCC[C@H](C(=O)O)C1 [Example 86] | 91 nM |
| COCCCCOc1ccnc(NCc2c(-c3ccc(O[C@H]4CCC[C@H](C(=O)O)C4)c(C)n3)nnn2C)n1 [Example 87] | 77 nM |
| CCSc1ccnc(NCc2c(-c3ccc(O[C@H]4CCC[C@H](C(=O)O)C4)c(C)n3)nnn2C)n1 [Example 88] | 16 nM |
| COCCCOc1ccnc(NCc2c(-c3ccc(O[C@H]4CCC[C@H](C(=O)O)C4)c(C)n3)nnn2C)n1 [Example 89] | 77 nM |
| Cc1nc(-c2nnn(C)c2CNc2nccc(OCC(F)(F)F)n2)ccc1O[C@H]1CCC[C@H](C(=O)O)C1 [Example 90] | 54 nM |
| Cc1nc(-c2nnn(C)c2CNc2nccc(OCC(F)(F)C(F)F)n2)ccc1O[C@H]1CCC[C@H](C(=O)O)C1 [Example 91] | 32 nM |
| Cc1nc(-c2nnn(C)c2CNc2ccnc(OCC(C)C)n2)ccc1O[C@H]1CCC[C@H](C(=O)O)C1 [Example 92] | 381 nM |
| Cc1nc(-c2nnn(C)c2CNc2nccc(OCC(C)C)n2)ccc1O[C@H]1CCC[C@H](C(=O)O)C1 [Example 93] | 23 nM |
| Cc1nc(-c2nnn(C)c2CNc2nccc(Oc3cccc(C#N)c3)n2)ccc1O[C@H]1CCC[C@H](C(=O)O)C1 [Example 94] | 241 nM |
| Cc1nc(-c2nnn(C)c2CNc2nc(-c3cccs3)nc(-c3cccs3)n2)ccc1O[C@H]1CCC[C@H](C(=O)O)C1 [Example 95] | 1280 nM |

| Compound | IC50 |
| --- | --- |
| Cc1nc(-c2nnn(C)c2CNc2nccc(OC3CCC3)n2)ccc1O[C@H]1CCC[C@H](C(=O)O)C1 [Example 96] | 16 nM |
| CSc1ccnc(NCc2c(-c3ccc(O[C@H]4CCC[C@H](C(=O)O)C4)c(C)n3)nnn2C)n1 [Example 97] | 187 nM |
| Cc1nc(-c2nnn(C)c2CNc2ccnc(OC(C)C(F)(F)F)n2)ccc1O[C@H]1CCC[C@H](C(=O)O)C1 (stereo partly shown) [Example 98] | 99 nM |
| Cc1nc(-c2nnn(C)c2CNc2nccc(OC(C)C(F)(F)F)n2)ccc1O[C@H]1CCC[C@H](C(=O)O)C1 (stereo partly shown) [Example 99] | 244 nM |
| Cc1nc(-c2nnn(C)c2CNc2nccc(Oc3c(F)cc(F)cc3F)n2)ccc1O[C@H]1CCC[C@H](C(=O)O)C1 [Example 100] | 85 nM |
| Cc1nc(-c2nnn(C)c2CNc2nccc(Oc3ccc(F)c(F)c3)n2)ccc1O[C@H]1CCC[C@H](C(=O)O)C1 [Example 101] | 28 nM |
| Cc1nc(-c2nnn(C)c2CNc2nccc(OCCCF)n2)ccc1O[C@H]1CCC[C@H](C(=O)O)C1 [Example 102] | 25 nM |
| Cc1nc(-c2nnn(C)c2CNc2nccc(Oc3cc(F)ccc3F)n2)ccc1O[C@H]1CCC[C@H](C(=O)O)C1 [Example 103] | 33 nM |
| CCCOc1ccnc(NCc2c(-c3ccc(O[C@H]4CCC[C@H](C(=O)O)C4)c(C)n3)nnn2C)n1 [Example 104] | 27 nM |
| COc1cccc(Oc2ccnc(NCc3c(-c4ccc(O[C@H]5CCC[C@H](C(=O)O)C5)c(C)n4)nnn3C)n2)c1 [Example 105] | 22 nM |
| Cc1ccc(Oc2ccnc(NCc3c(-c4ccc(O[C@H]5CCC[C@H](C(=O)O)C5)c(C)n4)nnn3C)n2)cc1 [Example 106] | 226 nM |
| COc1ccc(Oc2ccnc(NCc3c(-c4ccc(O[C@H]5CCC[C@H](C(=O)O)C5)c(C)n4)nnn3C)n2)cc1 [Example 107] | 54 nM |
| Cc1cccc(Oc2ccnc(NCc3c(-c4ccc(O[C@H]5CCC[C@H](C(=O)O)C5)c(C)n4)nnn3C)n2)c1 [Example 108] | 152 nM |
| Cc1nc(-c2nnn(C)c2CNc2nccc(Oc3cccc(F)c3)n2)ccc1O[C@H]1CCC[C@H](C(=O)O)C1 [Example 109] | 17 nM |
| Cc1nc(-c2nnn(C)c2CNc2nccc(Oc3ccc(F)cc3)n2)ccc1O[C@H]1CCC[C@H](C(=O)O)C1 [Example 110] | 22 nM |
| Cc1nc(-c2nnn(C)c2CNc2nccc(-n3ccccc3=O)n2)ccc1O[C@H]1CCC[C@H](C(=O)O)C1 [Example 111] | 763 nM |
| Cc1nc(-c2nnn(C)c2CNc2nccc(Oc3ccc(Cl)cc3)n2)ccc1O[C@H]1CCC[C@H](C(=O)O)C1 [Example 112] | 45 nM |
| Cc1nc(-c2nnn(C)c2CNc2nccc(Oc3ccccn3)n2)ccc1O[C@H]1CCC[C@H](C(=O)O)C1 [Example 113] | 191 nM |
| Cc1nc(-c2nnn(C)c2CNc2nccc(Oc3cc(F)cc(F)c3)n2)ccc1O[C@H]1CCC[C@H](C(=O)O)C1 [Example 114] | 17 nM |
| Cc1nc(-c2nnn(C)c2CNc2nccc(Oc3ccccc3F)n2)ccc1O[C@H]1CCC[C@H](C(=O)O)C1 [Example 115] | 25 nM |
| Cc1nc(-c2nnn(C)c2CNc2nccc(Oc3ccc(F)cc3F)n2)ccc1O[C@H]1CCC[C@H](C(=O)O)C1 [Example 116] | 14 nM |

| Compound | IC50 |
| --- | --- |
| Cc1nc(-c2nnn(C)c2CNc2nccc(OC3CC3)n2)ccc1O[C@H]1CCC[C@H](C(=O)O)C1 [Example 117] | 32 nM |
| Cc1nc(-c2nnn(C)c2CNc2ncccc2OC(C)C)ccc1O[C@H]1CCC[C@H](C(=O)O)C1 [Example 118] | 448 nM |
| Cc1nc(-c2nnn(C)c2CNc2ncccc2OC(F)(F)F)ccc1O[C@H]1CCC[C@H](C(=O)O)C1 [Example 119] | 793 nM |
| COc1cnc(NCc2c(-c3ccc(O[C@H]4CCC[C@H](C(=O)O)C4)c(C)n3)nnn2C)nc1C(C)(C)C [Example 120] | 344 nM |
| COc1cnc(NCc2c(-c3ccc(O[C@H]4CCC[C@H](C(=O)O)C4)c(C)n3)nnn2C)nc1C1CCC1 [Example 121] | 106 nM |
| COC(C)(C)c1ccnc(NCc2c(-c3ccc(O[C@H]4CCC[C@H](C(=O)O)C4)c(C)n3)nnn2C)n1 [Example 122] | 1130 nM |
| Cc1nc(-c2nnn(C)c2CNc2ncc(F)c(-c3ccccc3F)n2)ccc1O[C@H]1CCC[C@H](C(=O)O)C1 [Example 123] | 79 nM |
| COCC(C)(C)c1ccnc(NCc2c(-c3ccc(O[C@H]4CCC[C@H](C(=O)O)C4)c(C)n3)nnn2C)n1 [Example 124] | 385 nM |
| Cc1nc(-c2nnn(C)c2CNc2cc(C(F)(F)F)nc(Cl)n2)ccc1O[C@H]1CCC[C@H](C(=O)O)C1 [Example 125] | 167 nM |
| Cc1nc(-c2nnn(C)c2CNc2nccc(CC(C)C)n2)ccc1O[C@H]1CCC[C@H](C(=O)O)C1 [Example 126] | 22 nM |
| Cc1nc(-c2nnn(C)c2CNc2nccc(C(C)(C)CF)n2)ccc1O[C@H]1CCC[C@H](C(=O)O)C1 [Example 127] | 22 nM |
| Cc1nc(-c2nnn(C)c2CNc2nccc(C(C)(C)CO)n2)ccc1O[C@H]1CCC[C@H](C(=O)O)C1 [Example 128] | 855 nM |
| CCc1cc(CC)nc(NCc2c(-c3ccc(O[C@H]4CCC[C@H](C(=O)O)C4)c(C)n3)nnn2C)n1 [Example 129] | 102 nM |
| Cc1nc(-c2nnn(C)c2CNc2nccc(Oc3ccccc3)n2)cnc1O[C@H]1CCC[C@H](C(=O)O)C1 [Example 130] | 105 nM |
| Cc1nc(-c2nnn(C)c2CNc2nccc(C(C)(C)F)n2)ccc1O[C@H]1CCC[C@H](C(=O)O)C1 [Example 132] | 53 nM |
| Cc1nc(-c2nnn(C)c2CNc2nccc(C(C)(F)F)n2)ccc1O[C@H]1CCC[C@H](C(=O)O)C1 [Example 133] | 116 nM |
| CCC(F)(F)c1ccnc(NCc2c(-c3ccc(O[C@H]4CCC[C@H](C(=O)O)C4)c(C)n3)nnn2C)n1 [Example 134] | 28 nM |
| Cc1nc(-c2nnn(C)c2CNc2nccc(C(C)C)n2)cnc1O[C@H]1CCC[C@H](C(=O)O)C1 [Example 135] | 296 nM |
| Cc1nc(-c2nnn(C)c2CNc2nccc(C(C)(C)C)n2)cnc1O[C@H]1CCC[C@H](C(=O)O)C1 [Example 136] | 86 nM |
